What was measured:
Assay type in all cases: biochemical
[1] = target: T1, MLK1 (Homo sapiens, UniProt P80192); experiment: Inhibition of Mixed Lineage Kinase-1 (MLK1) activity; details: 60 μM ATP; for IC50: values without % sign; for inhibition at 0.1 µM: 100 nM compound
T1 construct: 1 μg/ml of baculoviral GST-MLK1KD; GST (N); made in house
Description: The kinase activity of MLK1 was assessed using the Millipore Multiscreen TCA “in-plate” format as described for protein kinase C (Pitt & Lee, J. Biomol. Screening, 1: 47-51, 1996). Briefly, each 50-μl assay mixture contained 20 mM Hepes, pH 7.2, 5 mM EGTA, 15 mM MgCl2, 25 mM β-glycerophosphate, 60 μM ATP, 0.25 μCi [γ-^32P]ATP, 0.1% BSA, 500 μ/ml myelin basic protein (UBI #13-104), 2% DMSO, […], and 1 μg/ml of baculoviral GST-MLK1KD. Samples were incubated for 15 min at 37° C. The reaction was stopped by adding ice cold 50% TCA and the proteins were allowed to precipitate for 30 min at 4° C. The plates were then washed with ice cold 25% TCA. Supermix scintillation cocktail was added, and the plates were allowed to equilibrate for 1-2 hours prior to counting using the Wallac MicroBeta 1450 PLUS scintillation counter.

[2] = target: T2, VEGF receptor (human flk-1, KDR, VEGFR2) kinase domain (Homo sapiens, UniProt P35968); experiment: Inhibition of VEGF receptor kinase activity (ELISA); details: 40 μM ATP; for inhibition at 0.3 µM: 300 nM compound, read-out: VEGFR2 % inh. @ 300 nM; for IC50: values without % sign
T2 construct: VEGF receptor (human flk-1, KDR, VEGFR2) kinase domain; made in house
T2 sequence (P35968 834-1162 limits assumed): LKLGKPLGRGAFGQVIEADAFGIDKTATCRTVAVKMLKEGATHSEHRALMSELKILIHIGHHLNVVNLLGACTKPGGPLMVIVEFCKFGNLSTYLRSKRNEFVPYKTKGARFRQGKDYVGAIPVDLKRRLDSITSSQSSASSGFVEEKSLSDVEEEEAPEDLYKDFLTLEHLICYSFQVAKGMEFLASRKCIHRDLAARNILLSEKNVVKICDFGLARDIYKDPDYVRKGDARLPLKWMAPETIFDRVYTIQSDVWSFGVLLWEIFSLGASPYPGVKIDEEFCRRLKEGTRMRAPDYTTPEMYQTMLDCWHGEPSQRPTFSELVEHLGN
Description: Fused pyrrolocarbazole compounds were examined for their inhibitory effects on the kinase activity of baculovirus-expressed VEGF receptor (human flk-1, KDR, VEGFR2) kinase domain using the procedure described for the trkA kinase ELISA assay described below. The kinase reaction mixture, consisting of 50 mM Hepes, pH 7.4, 40 μM ATP, 10 mM MnCl2, 0.1% BSA, 2% DMSO, and various concentrations of inhibitor, was transferred to PLC-γ/GST-coated plates. VEGFR kinase was added and the reaction was allowed to proceed for 15 min. at 37° C. Detection of phosphorylated product was accomplished by addition of anti-phosphotyrosine antibody (UBI). A secondary enzyme-conjugated antibody was delivered to capture the antibody-phosphorylated PLC-γ/GST complex. The activity of the bound enzyme was measured via an amplified detection system (Gibco-BRL). Inhibition data were analyzed using the sigmoidal dose-response (variable slope) equation in GraphPad Prism.
Selected isomeric fused pyrrolocarbazole and isoindolone compounds can be tested for their ability to inhibit the kinase activity of baculovirus-expressed human trkA cytoplasmic domain using an ELISA-based assay as previously described (Angeles et al., Anal. Biochem. 236: 49-55, 1996). Briefly, the 96-well microtiter plate is coated with substrate solution (recombinant human phospholipase C-γl/glutathione S-transferase fusion protein (Rotin et al., EMBO J., 11: 559-567, 1992). Inhibition studies are performed in 100 μl assay mixtures containing 50 mM Hepes, pH 7.4, 40 μM ATP, 10 mM MnCl2, 0.1% BSA, 2% DMSO, and various concentrations of inhibitor. The reaction is initiated by addition of trkA kinase and allowed to proceed for 15 minutes at 37° C. An antibody to phosphotyrosine (UBI) is then added, followed by a secondary enzyme-conjugated antibody, alkaline phosphatase-labelled goat anti-mouse IgG (Bio-Rad). The activity of the bound enzyme is measured via an amplified detection system (Gibco-BRL). Inhibition data are analyzed using the sigmoidal dose-response (variable slope) equation in GraphPad Prism.

[3] = target: T3, MLK3 (Homo sapiens, UniProt Q16584); experiment: Inhibition of Mixed Lineage Kinase-3 (MLK3) activity; details: 100 μM ATP; for inhibition at 0.1 µM: 100 nM compound; for IC50: values without % sign
T3 construct: 2 μg/ml of baculoviral GST-MLK3KD; GST (N); made in house
T3 sequence (Q16584 117-379 limits assumed, species assumed): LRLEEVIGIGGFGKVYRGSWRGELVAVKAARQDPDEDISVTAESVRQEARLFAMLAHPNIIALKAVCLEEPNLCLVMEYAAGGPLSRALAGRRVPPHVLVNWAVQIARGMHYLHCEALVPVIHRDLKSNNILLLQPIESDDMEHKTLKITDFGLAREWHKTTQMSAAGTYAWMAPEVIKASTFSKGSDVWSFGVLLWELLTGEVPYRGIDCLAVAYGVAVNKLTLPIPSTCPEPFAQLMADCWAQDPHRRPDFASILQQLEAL
Description: (§1) The kinase activity of MLK1 was assessed using the Millipore Multiscreen TCA “in-plate” format as described for protein kinase C (Pitt & Lee, J. Biomol. Screening, 1: 47-51, 1996). Briefly, each 50-μl assay mixture contained 20 mM Hepes, pH 7.2, 5 mM EGTA, 15 mM MgCl2, 25 mM β-glycerophosphate, 60 μM ATP, 0.25 μCi [γ-^32P]ATP, 0.1% BSA, 500 μ/ml myelin basic protein (UBI #13-104), 2% DMSO, 1 μM of test compound, and 1 μg/ml of baculoviral GST-MLK1KD. Samples were incubated for 15 min at 37° C. The reaction was stopped by adding ice cold 50% TCA and the proteins were allowed to precipitate for 30 min at 4° C. The plates were then washed with ice cold 25% TCA. Supermix scintillation cocktail was added, and the plates were allowed to equilibrate for 1-2 hours prior to counting using the Wallac MicroBeta 1450 PLUS scintillation counter.
(§2) Assays were performed using the Millipore Multiscreen plate format as described for MLK1. Briefly, each 50-μl assay mixture contained 20 mM Hepes, pH 7.2, 5 mM EGTA, 15 mM MgCl2, 25 mM β-glycerophosphate, 100 μM ATP, 0.25 μCi [γ-^32P]ATP, 0.1% BSA, 500 μg/ml myelin basic protein (UBI #13-104), 2% DMSO, various concentrations of test compound, and 2 μg/ml of baculoviral GST-MLK3KD. Sample were incubated for 15 min at 37° C. The reaction was stopped by adding ice cold 50% TCA and the proteins were allowed to precipitate for 30 min at 4° C. The plates were then washed with ice cold 25% TCA. Supermix scintillation cocktail was added, and the plates were allowed to equilibrate for 1-2 hours prior to counting.

[4] = target: T4, MLK2 (Homo sapiens, UniProt Q02779); experiment: Inhibition of Mixed Lineage Kinase-2 (MLK2) activity; details: 100 nM compound; 100 μM ATP
T4 construct: fused on or other part: GST tag
T4 sequence (Q02779 98-440 limits assumed): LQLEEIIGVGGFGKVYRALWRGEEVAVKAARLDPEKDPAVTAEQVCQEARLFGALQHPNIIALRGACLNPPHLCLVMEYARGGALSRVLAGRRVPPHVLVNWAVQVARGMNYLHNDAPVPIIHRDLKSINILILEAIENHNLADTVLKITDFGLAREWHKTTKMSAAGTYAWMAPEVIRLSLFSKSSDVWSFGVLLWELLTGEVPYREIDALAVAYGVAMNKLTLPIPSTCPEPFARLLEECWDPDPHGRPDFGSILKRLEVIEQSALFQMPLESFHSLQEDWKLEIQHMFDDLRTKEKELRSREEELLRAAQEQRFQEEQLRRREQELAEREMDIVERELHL
Description: as §1
as §2, with “MLK1. Each” for “MLK1. Briefly, each”, “and 3” for “and 2”, “baculoviral GST-MLK2KDLZ. Samples” for “baculoviral GST-MLK3KD. Sample”, “15 min.” for “15 min”

T1 sequence (P80192 144-412 limits assumed, species assumed): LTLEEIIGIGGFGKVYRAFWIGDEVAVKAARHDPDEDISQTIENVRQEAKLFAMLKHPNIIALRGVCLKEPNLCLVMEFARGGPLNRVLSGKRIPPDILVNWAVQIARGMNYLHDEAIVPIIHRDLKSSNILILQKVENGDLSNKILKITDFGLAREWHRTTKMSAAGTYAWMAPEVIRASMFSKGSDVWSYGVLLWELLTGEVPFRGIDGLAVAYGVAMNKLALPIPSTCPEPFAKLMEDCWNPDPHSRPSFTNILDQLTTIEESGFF

SMILES	IC50 [1] [nM]	inhibition at 0.3 µM [2] [%]	inhibition at 0.1 µM [3] [%]	IC50 [2] [nM]	IC50 [3] [nM]	inhibition at 0.1 µM [1] [%]	inhibition at 0.1 µM [4] [%]
CCOC(C)c1ccc2c(c1)c1c3c(c4c(c1n2CCCO)Cc1ccccc1-4)C(=O)NC3 (single isomer, unassigned) [Compound 11]	78	–	–	65	20	–	–
CCOCc1ccc2[nH]c3c4c(c5c(c3c2c1)CNC5=O)-c1ccccc1C4C(C)O (single isomer, unassigned) [Compound 14]	–	–	–	72	9	93	–
CCOCc1ccc2c(c1)c1c3c(c4c(c1n2CCCO)Cc1ccccc1-4)C(=O)NC3 [Compound 1]	21	–	–	4	4	–	–
COCc1ccc2c(c1)c1c3c(c4c(c1n2CCCO)Cc1ccccc1-4)C(=O)NC3 [Compound 2]	15	–	–	17	8	–	–
CC(C)OCc1ccc2c(c1)c1c3c(c4c(c1n2CCCO)Cc1ccccc1-4)C(=O)NC3 [Compound 3]	17	–	–	7	9	–	–
CCC(C)OCc1ccc2c(c1)c1c3c(c4c(c1n2CCCO)Cc1ccccc1-4)C(=O)NC3 (stereo not shown) [Compound 4]	15	–	–	12	4	–	–
CCOCc1ccc2c(c1)c1c3c(c4c(c1n2CC(C)O)Cc1ccccc1-4)C(=O)NC3 (stereo not shown) [Compound 7]	–	–	–	25	30	85	–
CCCCOCc1ccc2c(c1)c1c3c(c4c(c1n2CCCO)Cc1ccccc1-4)C(=O)NC3 [Compound 9]	26	–	–	18	15	–	–
CCOC(C)c1ccc2c(c1)c1c3c(c4c(c1n2CCCO)Cc1ccccc1-4)C(=O)NC3 (stereo not shown) [Compound 10]	37	–	–	83	15	–	–
CCCCOC(C)c1ccc2c(c1)c1c3c(c4c(c1n2CCCO)Cc1ccccc1-4)C(=O)NC3 (stereo not shown) [Compound 15]	41	–	–	130	27	–	–
CC(C)OC(C)c1ccc2c(c1)c1c3c(c4c(c1n2CCCO)Cc1ccccc1-4)C(=O)NC3 (stereo not shown) [Compound 16]	–	–	49	411	–	66	–
CC(C)(C)OCc1ccc2c(c1)c1c3c(c4c(c1n2CCCO)Cc1ccccc1-4)C(=O)NC3 [Compound 17]	35	–	–	11	–	–	50
CC(C)OCc1ccc2c(c1)c1c3c(c4c(c1n2CCCOC(=O)CN)Cc1ccccc1-4)C(=O)NC3 [Compound 18]	47	–	–	23	23	–	–
CC(C)OCc1ccc2c(c1)c1c3c(c4c(c1n2CCCOC(=O)C(N)CCCCN)Cc1ccccc1-4)C(=O)NC3 (stereo not shown) [Compound 19]	–	60	–	–	–	44	28

Continued, values first:

IC50 [1] [nM]	inhibition at 0.3 µM [2] [%]	inhibition at 0.1 µM [3] [%]	IC50 [2] [nM]	IC50 [3] [nM]	inhibition at 0.1 µM [1] [%]	inhibition at 0.1 µM [4] [%]	SMILES
26	12	41	–	–	–	–	COC(C)c1ccc2[nH]c3c4c(c5c(c3c2c1)CNC5=O)-c1ccccc1C4 (racemic) [Compound 36]
–	48	–	–	–	40	–	CC(C)OCc1ccc2c(c1)c1c3c(c4c(c1n2CCCOC(=O)CCCN(C)C)Cc1ccccc1-4)C(=O)NC3 [Compound 21]
–	57	–	–	–	31	–	CC(C)OCc1ccc2c(c1)c1c3c(c4c(c1n2CCCOC(=O)CCCCCN)Cc1ccccc1-4)C(=O)NC3 [Compound 23]
–	31	55	–	–	62	–	CCSCc1ccc2c(c1)c1c3c(c4c(c1n2CCO)Cc1ccccc1-4)C(=O)NC3 [Compound 24]
22	–	–	21	12	–	–	CCSCc1ccc2c(c1)c1c3c(c4c(c1n2CCCO)Cc1ccccc1-4)C(=O)NC3 [Compound 25]
22	–	–	57	–	–	–	CC(C)SCc1ccc2c(c1)c1c3c(c4c(c1n2CCCO)Cc1ccccc1-4)C(=O)NC3 [Compound 27]
76	34	–	–	74	–	–	O=C1NCc2c1c1c(c3c2c2cc(CO)ccc2n3CCO)Cc2ccccc2-1 [Compound 28]
30	–	–	302	–	–	–	O=C1NCc2c1c1c(c3[nH]c4ccc(CO)cc4c23)Cc2ccccc2-1 [Compound 30]
46	–	–	77	29	–	–	CCOCc1ccc2[nH]c3c4c(c5c(c3c2c1)CNC5=O)-c1ccccc1C4 [Compound 31]
24	33	–	–	19	–	–	CC(C)OCc1ccc2[nH]c3c4c(c5c(c3c2c1)CNC5=O)-c1ccccc1C4 [Compound 32]
50	–	–	111	16	–	–	CC(O)c1ccc2c(c1)c1c3c(c4c(c1n2CCCO)Cc1ccccc1-4)C(=O)NC3 (stereo not shown) [Compound 33]
–	–	32	7	–	45	–	CCC(O)c1ccc2c(c1)c1c3c(c4c(c1n2CCCO)Cc1ccccc1-4)C(=O)NC3 (stereo not shown) [Compound 34]
–	37	62	–	–	60	–	CC(O)c1ccc2[nH]c3c4c(c5c(c3c2c1)CNC5=O)-c1ccccc1C4 (stereo not shown) [Compound 35]
17	37	–	–	–	–	–	CCCSCc1ccc2c(c1)c1c3c(c4c(c1n2CCCOC(=O)C(F)(F)F)Cc1ccccc1-4)C(=O)NC3 [Compound 37]
–	45	–	–	30	58	–	O=C1NCc2c1c1c(c3c2c2cc(CSc4ccccn4)ccc2n3CCCO)Cc2ccccc2-1 [Compound 38]
–	13	56	–	–	55	–	O=C1NCc2c1c1c(c3c2c2cc(CSc4ncccn4)ccc2n3CCCO)Cc2ccccc2-1 [Compound 39]
45	–	43	200	–	–	–	COc1ccc2[nH]c3c4c(c5c(c3c2c1)CNC5=O)-c1ccccc1C4 [D, reference compound]

From patent US6630500B2, “Selected fused pyrrolocarbazoles” (Cephalon, Inc., priority 2000, dated 2003)
